According to article PMC9965018, “Marine-Derived Natural Product HDYL-GQQ-495 Targets P62 to Inhibit Autophagy” (Marine Drugs, 2023):

Target: T1, P62 (P62/SQSTM1) (Homo sapiens, UniProt Q13501)
T1 construct: MBP-P62 (purified recombinant)
Test: microscale thermophoresis (MST) with labelled MBP-P62, MBP as negative control; also induces polymerization of purified P62
Format: binding

T1 sequence (Q13501 2-440): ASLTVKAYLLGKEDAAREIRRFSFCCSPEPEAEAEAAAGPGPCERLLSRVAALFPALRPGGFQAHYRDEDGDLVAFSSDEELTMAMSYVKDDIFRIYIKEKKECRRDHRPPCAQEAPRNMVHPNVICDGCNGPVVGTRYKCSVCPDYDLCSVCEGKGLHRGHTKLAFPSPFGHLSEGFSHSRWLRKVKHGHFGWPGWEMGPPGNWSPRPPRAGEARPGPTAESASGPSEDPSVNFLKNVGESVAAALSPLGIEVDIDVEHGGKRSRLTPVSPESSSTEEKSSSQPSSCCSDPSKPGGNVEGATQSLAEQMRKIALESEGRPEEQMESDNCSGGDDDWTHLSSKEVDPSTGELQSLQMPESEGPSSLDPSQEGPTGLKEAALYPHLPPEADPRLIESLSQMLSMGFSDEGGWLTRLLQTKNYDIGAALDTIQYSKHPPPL

- Kd: 11.2 ± 4.07 µM
SMILES: O=C(c1ccc(OCCN2CCCCC2)cc1)c1c(O)nc2ccc(O)c3c2c1-c1cccc(O)c1C3=O [HDYL-GQQ-495]
